This is an account of results in patent US20200246441A1, “COMPOSITIONS AND METHODS FOR AUTOIMMUNE DISEASE TREATMENT” (AMRITA VISHWA VIDYAPEETHAM, priority 2016, published 2020).

Entries after “also recorded” stand apart in the source; their conditions may differ.

In one assay the test system is EAE. Conditions: administered as free peptide; cited from earlier work.
Assay [1] has as its system MOG-specific T-cells (spleen cells from MOG T-cell receptor transgenic (2D2) mice). Kind of assay: Proliferation assay, 3H-thymidine incorporation. It counts as cell-based, mouse. Conditions: for T-cell proliferation (proliferative response): free peptide or 500 nm silica NPs, up to 8 ug/ml. The protocol: Spleens were dissected from MOG T-cell receptor transgenic mice expressing the transgenic V3.2α/Vβ11 T-cell receptor specific for MOG35-55 peptide ([…]) in the context of 1-A^b. Single cell suspensions were prepared in complete RPMI medium containing 10% heat inactivated FBS, 2 mM L-glutamine, 100 U/ml penicillin, 100 μg/ml streptomycin, 50 μM 2-mercaptoethanol and 1 mM sodium pyruvate (Sigma). Following red blood cell lysis, splenocytes were seeded in triplicate in 96-well, flat bottom microtiter plates (Nunc) at a concentration of 2.5×10^5 cells per well. Splenocytes were cultured in medium alone or in the presence of increasing doses of MOG35-55 or nanoparticles. Cells were incubated at 37° C. for 72 hr with the addition of 1 μCi/well [3H]-thymidine (Perkin Elmer) for the last 18 hr of culture. Cells were harvested onto filter mats (Perkin Elmer) and incorporated radioactive nucleic acids counted using a Top Count NXT Scintillation Counter (Packard Biosciences).

For assay [2], the system named is NOD/Lt EAE mice. Kind of assay: EAE induction and clinical scoring, recombinant mouse MOG-induced EAE in NOD/Lt mice (relapsing remitting model). In kind it is in vivo. Particulars: for Disease incidence / Mortality / Cumulative score / Day disease onset / Maximum score / Score at termination: 200 nm silica peptide nanoparticles, NOD/Lt; for Disease incidence / Mortality: fraction of total; for Cumulative score / Day disease onset / Maximum score / Score at termination: mean ± SEM.

Assay [3] relates to C57Bl/6 EAE mice. Description: Histological analysis of CNS tissue of C57Bl/6 EAE mice. Further details: key to Axonal damage: 0 = no axonal pathology, 3 = severe axonal pathology; key to Demyelination score: 0 = no demyelination, 3 = severe demyelination. It counts as in vivo, mouse. Particulars: for Axonal damage / Demyelination score / Inflammation score: mean ± SEM. How it is done: (§1) For histological analysis of CNS tissue, the brain and spinal cord were dissected from mice then fixed in 10% formalin (Sigma) for 24-48 h. Tissue was then processed and embedded in paraffin wax. Serial sections (5 μm) were cut from paraffin-embedded tissues and stained with hematoxylin and eosin, luxol fast blue and Bielschowsky silver impregnation to assess inflammation, demyelination and axonal damage, respectively. Sections were scored blind for semi-quantitative histological analysis of inflammation as follows: 0, no inflammation: 1, cellular infiltrate only in the perivascular areas and meninges; 2, mild cellular infiltrate in parenchyma: 3, moderate cellular infiltrate in parenchyma; 4, severe cellular infiltrate in parenchyma. Demyelination and axonal pathology were assessed by pale staining and scored blind as follows: 0, no demyelination/axonal pathology: 1, mild demyelination/axonal pathology; 2, moderate demyelination-axonal pathology; 3, severe demyelination/axonal pathology.

Assay [4] concerns C57Bl/6 EAE mice. Description: EAE induction and clinical scoring, MOG35-55-induced EAE in C57Bl/6 mice (chronic progressive model). Conditions: for Disease incidence / Mortality: fraction of total; for Cumulative score / Day disease onset / Maximum score / Score at termination: mean ± SEM. It counts as in vivo, mouse.
Assay [5] concerns NOD/Lt EAE mice. Description: Histological analysis of CNS tissue of NOD/Lt EAE mice. In kind it is in vivo, mouse. On the set-up: key to Axonal damage: 0 = no axonal pathology, 3 = severe axonal pathology; key to Demyelination score: 0 = no demyelination, 3 = severe demyelination. Conditions: 200 nm silica peptide nanoparticles, mean ± SEM. The protocol: as §1
Setting [6] is: 200 nm silica peptide nanoparticles.
Setting [7] is: 500 nm silica peptide nanoparticles.
Where [8] appears, read: 500 nm silica peptide nanoparticles, i.v. day -7 and -1.

On to VGWYRSPβFSRVVHLYR [MOG 44βF], for which, in the assay on EAE, the “dosage at which free peptide suppressed EAE” value is 800 µg.
Consider “MOG37-52: silica nanoparticles coated with mouse MOG37-52 peptide VGWYRSPFSRVVHLYR; 500 nm in Table 1, 200 nm in Tables 2 and 3”, for which the proliferative response entry in assay [1] (200 nm NPs) is given as “did not induce a proliferative response that was above background levels”. Also, in assay [1], the “T-cell proliferation (proliferative response)” value is “comparable proliferative response; also recorded: comparable to the MOG37-52 peptide”. Besides, the disease severity result with NOD/Lt EAE mice [2] (200 nm NPs, NOD/Lt mice) was “significantly reduced disease severity”. In the assay with NOD/Lt EAE mice [2], the Disease incidence is 6/6, the Mortality is 0/6, the Cumulative score is on record as 30.50 ± 3.266^∧∧ ^## and the Day disease onset was determined as 17.33 ± 2.23. Further, in the assay on NOD/Lt EAE mice [2], the Maximum score was 2.667 ± 0.1667^∧ and the Score at termination is recorded as 2.25 ± 0.2814^∧. Besides, in the assay with C57Bl/6 EAE mice [3] (200 nm silica nanoparticles), the “axonal damage compared to bear, scrambled MOG37-52 or ovalbumin nanoparticles” value is reported as “significantly reduced axonal damage” and the “inflammation compared to bear nanoparticles” value is “significantly reduced inflammation”. Moreover, in the assay with C57Bl/6 EAE mice [3] (setting [6]), the Axonal damage is listed as 1.35 ± 0.1833 # ^∧∧∧, the Demyelination score is on record as 1.85 ± 0.2242 and the Inflammation score is listed as 2.275 ± 0.3772^∧. Besides, in the assay with C57Bl/6 EAE mice [3] (500 nm NPs, versus bare NPs or scrambled MOG37-52 NPs), the “CNS inflammation, demyelination and axonal damage” value is “reduction in CNS inflammation, demyelination and axonal damage; also recorded: significantly reduced inflammation, demyelination and axonal damage”. In the assay with C57Bl/6 EAE mice [3] (setting [7]), the Axonal damage is reported as 1.208 ± 0.2275 ^∧∧, the Demyelination score is listed as 0.833 ± 0.8333 ^** ∧∧∧∧ and the Inflammation score is 1.542 ± 0.2275 ^* ∧∧. Besides, the “effect on clinical disease” value in the assay on C57Bl/6 EAE mice [4] (200 nm NPs, C57BL/6 mice) is listed as “significant effect on clinical disease”. In the assay on C57Bl/6 EAE mice [4] (setting [6]), the Disease incidence was 10/10, the Mortality is reported as 0/10, the Cumulative score is 33.05 ± 2.086 ∧∧∧∧ and the Day disease onset worked out at 15.70 ± 1.334. In addition, in the assay with C57Bl/6 EAE mice [4] (setting [6]), the Maximum score is reported as 2.50 ± 0.1667^∧ and the Score at termination is listed as 1.45 ± 0.2930^∧∧∧. In addition, the “daily mean clinical score compared to controls” value in the assay on C57Bl/6 EAE mice [4] (500 nm NPs, treatment prior to induction of EAE) is reported as “significant reduction”. The Disease incidence with C57Bl/6 EAE mice [4] (setting [8]) was 6/6. In the assay on C57Bl/6 EAE mice [4] (setting [7]), the Mortality is listed as 0/6, the Cumulative score is listed as 26.00 ± 8.039 ^**, the Day disease onset came out at 17.17 ± 2.151 and the Maximum score is on record as 2.00 ± 0.3873. Moreover, the Score at termination with C57Bl/6 EAE mice [4] (setting [7]) came to 1.083 ± 0.3270. In the assay on NOD/Lt EAE mice [5], this molecule had an Axonal damage of 2.833 ± 0.1667, a Demyelination score of 2.917 ± 0.0833 and an Inflammation score of 4.167 ± 0.1667.

B1: Ova: control silica nanoparticles (500 nm or 200 nm) coated with ovalbumin (conjugate)
chain: GSIGAASMEFCFDVFKELKVHHANENIFYCPIAIMSALAMVYLGAKDSTRTQINKVVRFDKLPGFGDSIEAQCGTSVNVHSSLRDILNQITKPNDVYSFSLASRLYAEERYPILPEYLQCVKELYRGGLEPINFQTAADQARELINSWVESQTNGIIRNVLQPSSVDSQTAMVLVNAIVFKGLWEKAFKDEDTQAMPFRVTEQESKPVQMMYQIGLFRVASMASEKMKILELPFASGTMSMLVLLPDEVSGLEQLESIINFEKLTEWTSSNVMEERKIKVYLPRMKMEEKYNLTSVLMAMGITDVFSSSANLSGISSAESLKISQAVHAAHAEINEAGREVVGSAEAGVDAASVSEEFRADHPFLFCIKHIATNAVLFFGRCVSP
For B1, in assay [1], the “T-cell proliferation (proliferative response)” value is “not capable of stimulating T-cell proliferation”. Besides, in the assay with NOD/Lt EAE mice [2], the Disease incidence is recorded as 6/6, the Mortality was 1/6, the Cumulative score was 46.75 ± 4.656 and the Day disease onset worked out at 14.17 ± 1.327. In the assay with NOD/Lt EAE mice [2], the Maximum score is reported as 3.583 ± 0.3005 and the Score at termination is 3.167 ± 0.4014. In addition, in the assay with C57Bl/6 EAE mice [3] (setting [6]), the Axonal damage is recorded as 2.50 ± 0.2236, the Demyelination score was 2.40 ± 0.3674 and the Inflammation score is 2.80 ± 0.4899. In the assay on C57Bl/6 EAE mice [3] (setting [7]), the Axonal damage was 2.333 ± 0.1667, the Demyelination score is 2.333 ± 0.1667 and the Inflammation score came to 2.833 ± 0.1667. In addition, in the assay with C57Bl/6 EAE mice [4] (setting [6]), the Disease incidence is on record as 5/5, the Mortality is 0/5, the Cumulative score was 62.00 ± 4.987 and the Day disease onset is listed as 10.60 ± 0.9274. In the assay on C57Bl/6 EAE mice [4] (setting [6]), this molecule showed a Maximum score of 3.3 ± 0.2000 and a Score at termination of 2.60 ± 0.3317. Further, the Disease incidence in the assay with C57Bl/6 EAE mice [4] (setting [8]) was 4/4. Moreover, in the assay with C57Bl/6 EAE mice [4] (setting [7]), the Mortality is on record as 1/4, the Cumulative score was determined as 69.38 ± 11.77, the Day disease onset was found to be 10.75 ± 0.8539 and the Maximum score worked out at 3.625 ± 0.4732. In the assay on C57Bl/6 EAE mice [4] (setting [7]), this molecule yielded a Score at termination of 2.75 ± 0.7773. In the assay with NOD/Lt EAE mice [5], this molecule returned an Axonal damage of 2.60 ± 0.1871, a Demyelination score of 2.60 ± 0.1871 and an Inflammation score of 4.00 ± 0.00.
